From the CheMixHub viscosity set

Assay: xn = mol fraction of the nth substance listed

CCOC(=O)c1ccccc1 + Cc1ccccc1
viscosity [mPa·s], 101 kPa
Conditions | 298.15 K | 303.15 K | 313.15 K
x1 = 0.0488 | – | 0.577 | 0.504
x1 = 0.1223 | – | 0.652 | 0.562
x1 = 0.1524 | 0.6845 | – | –
x1 = 0.1712 | – | 0.701 | 0.601
x1 = 0.2201 | – | 0.749 | 0.637
x1 = 0.2923 | – | 0.823 | 0.694
x1 = 0.3425 | – | 0.875 | 0.734
x1 = 0.3548 | 0.9076 | – | –
x1 = 0.4176 | – | 0.954 | 0.795
x1 = 0.4918 | – | 1.035 | 0.858
x1 = 0.5675 | – | 1.123 | 0.926
x1 = 0.63 | 1.279 | – | –
x1 = 0.6436 | – | 1.22 | 1.001
x1 = 0.7352 | 1.452 | – | –
x1 = 0.7452 | – | 1.359 | 1.109
x1 = 0.8194 | – | 1.473 | 1.198
x1 = 0.8445 | 1.655 | – | –
x1 = 0.8969 | – | 1.605 | 1.312
x2 = 0.2273 | 1.495 | – | –
x2 = 0.5945 | 0.939 | – | –
x2 = 0.8392 | 0.679 | – | –

CCCNCCC + CCCCO
viscosity [mPa·s]
Conditions | 303.15 K | 313.15 K
101 kPa, x1 = 0.01005 | 2.225 | –
101 kPa, x1 = 0.01919 | 2.196 | –
101 kPa, x1 = 0.03366 | 2.165 | –
101 kPa, x1 = 0.0409 | 2.145 | –
101 kPa, x1 = 0.04956 | 2.121 | –
101 kPa, x1 = 0.05853 | 2.098 | –
101 kPa, x1 = 0.07021 | 2.064 | –
101 kPa, x1 = 0.07906 | 2.04 | –
101 kPa, x1 = 0.09184 | 2.006 | –
101.33 kPa, x1 = 0.0954 | 2.038 | 1.621
101.33 kPa, x1 = 0.1904 | 1.797 | 1.426
101.33 kPa, x1 = 0.2859 | 1.567 | 1.252
101.33 kPa, x1 = 0.4163 | 1.299 | 1.031
101.33 kPa, x1 = 0.5205 | 1.106 | 0.8851
101.33 kPa, x1 = 0.615 | 0.9506 | 0.7697
101.33 kPa, x1 = 0.7107 | 0.8177 | 0.6675
101.33 kPa, x1 = 0.8108 | 0.6968 | 0.5735
101.33 kPa, x1 = 0.8924 | 0.6105 | 0.5037

CCCNCCC + CCCCCCCCO
viscosity [mPa·s], 101.33 kPa
Conditions | x1 = 0.0971 | x1 = 0.1988 | x1 = 0.2871 | x1 = 0.3825 | x1 = 0.4806 | x1 = 0.5852 | x1 = 0.6925 | x1 = 0.7882 | x1 = 0.8977
303.15 K | 5.165 | 4.21 | 3.462 | 2.752 | 2.135 | 1.61 | 1.202 | 0.9319 | 0.6909
313.15 K | 3.773 | 3.107 | 2.571 | 2.053 | 1.6 | 1.223 | 0.9264 | 0.7294 | 0.5547

OCC(F)(F)C(F)F + O
viscosity [mPa·s], 100 kPa
Conditions | x1 = 0.1237 | x1 = 0.2532 | x1 = 0.3747 | x1 = 0.5024 | x1 = 0.6133 | x1 = 0.7598 | x1 = 0.8707
298.15 K | 2.07 | 2.716 | 3.002 | 3.314 | 3.523 | 3.91 | 4.341
323.15 K | 1.032 | 1.34 | 1.478 | 1.59 | 1.678 | 1.807 | 1.961

CCCNCCC + CCC(C)O
303.15 K, 101 kPa
Conditions | viscosity [mPa·s]
x1 = 0.009464 | 2.442
x1 = 0.02067 | 2.411
x1 = 0.03223 | 2.381
x1 = 0.04172 | 2.358
x1 = 0.04996 | 2.336
x1 = 0.05928 | 2.313
x1 = 0.07049 | 2.286
x1 = 0.08687 | 2.251
x1 = 0.09038 | 2.238

C=C(C)C(=O)OCC + CC#N
viscosity [mPa·s], 101 kPa
Conditions | 298.15 K | 303.15 K | 308.15 K | 313.15 K | 318.15 K
x2 = 0.0556 | 0.6285 | 0.5725 | 0.5246 | 0.4857 | 0.4542
x2 = 0.1112 | 0.6154 | 0.562 | 0.5162 | 0.479 | 0.4489
x2 = 0.1631 | 0.6027 | 0.5516 | 0.5079 | 0.4722 | 0.4433
x2 = 0.2147 | 0.5894 | 0.5408 | 0.499 | 0.4649 | 0.4372
x2 = 0.2795 | 0.5723 | 0.5266 | 0.4872 | 0.455 | 0.4287
x2 = 0.3446 | 0.5545 | 0.5115 | 0.4746 | 0.4443 | 0.4194
x2 = 0.4132 | 0.5349 | 0.495 | 0.4606 | 0.4322 | 0.4088
x2 = 0.4819 | 0.5147 | 0.4777 | 0.4458 | 0.4194 | 0.3974
x2 = 0.5597 | 0.4911 | 0.4574 | 0.4283 | 0.404 | 0.3836
x2 = 0.6375 | 0.4667 | 0.4364 | 0.41 | 0.3878 | 0.3689
x2 = 0.7251 | 0.4385 | 0.4119 | 0.3885 | 0.3686 | 0.3515
x2 = 0.8113 | 0.4101 | 0.387 | 0.3666 | 0.349 | 0.3334
x2 = 0.9014 | 0.3798 | 0.3604 | 0.343 | 0.3277 | 0.3137
x2 = 0.9542 | 0.3618 | 0.3445 | 0.3289 | 0.3148 | 0.3018

CCOC(=O)c1ccccc1 + COc1ccccc1
viscosity [mPa·s], 101 kPa
Conditions | x1 = 0.0786 | x1 = 0.1616 | x1 = 0.2448 | x1 = 0.3356 | x1 = 0.4336 | x1 = 0.5357 | x1 = 0.6386 | x1 = 0.7505 | x1 = 0.8709
303.15 K | 0.973 | 1.026 | 1.085 | 1.156 | 1.229 | 1.323 | 1.416 | 1.521 | 1.631
308.15 K | 0.896 | 0.949 | 1.007 | 1.071 | 1.143 | 1.224 | 1.311 | 1.404 | 1.504
313.15 K | 0.805 | 0.856 | 0.908 | 0.963 | 1.026 | 1.101 | 1.174 | 1.256 | 1.342

C1=CCCCC1 + CCCCCC
303.15 K, 101 kPa
Conditions | viscosity [mPa·s]
x1 = 0.1718 | 0.348
x1 = 0.2792 | 0.365
x1 = 0.3914 | 0.387
x1 = 0.5249 | 0.418
x1 = 0.5946 | 0.438
x1 = 0.6859 | 0.464
x1 = 0.8067 | 0.503
x1 = 0.9032 | 0.536
